According to publication PMC5111122, “Peptides at the Interface: Self-Assembly of Amphiphilic Designer Peptides and Their Membrane Interaction Propensity” (Biomacromolecules, 2016):

Tests used:
[1] = not given; remark: listed apart in the source
[2] = TEM of peptide assemblies (negative staining, cryo); assay type: physicochemical
Protocol: (§1) Lyophilized peptides were dissolved in double-distilled water. NaOH (1 or 0.1 M) was added stepwise until the samples appeared as clear, colorless solutions. Stock solutions (50 mM) were then diluted with double-distilled water to obtain the desired concentrations. All samples were aged for 1 week under an argon atmosphere prior to fluorescence, SAXS, TEM, and attenuated total reflection Fourier transform infrared (ATR-FTIR) spectroscopy measurements.
Solutions of A6YD and V4WD2 (11 mM) were incubated for 1 week prior to TEM measurements. Samples were adsorbed onto a glow-discharged carbon-coated copper grid and allowed to settle for 1 min. Excess fluid was carefully removed with filter paper and immediately replaced by 5 μL of a 2% (w/v) uranyl acetate staining solution, which was centrifuged for 6 min at 10000 rpm prior to usage in order to precipitate potentially present aggregates. The uranyl acetate solution was allowed to settle for 30 s, blotted, and replaced by another 5 μL of fresh solution. After 30 s of incubation, the staining solution was removed and the sample was air-dried. Visualization of the samples was achieved by using a Fei Tecnai G^2 20 transmission electron microscope (Eindhoven, The Netherlands) operating at an acceleration voltage of 120 kV. Digital images were made using a Gatan US1000 CCD camera at 2K × 2K resolution.

[3] = Differential scanning calorimetry (DSC) on DPPC MLVs; settings: as evidenced by DSC, EPR, and SAXS
Protocol: DPPC was dissolved in chloroform/methanol (2:1 v/v), mixed, and organic solvents were evaporated under a gentle stream of nitrogen, followed by drying under a vacuum overnight in order to completely remove residual organic solvents. The dry lipid-film was hydrated either by adding double-distilled water (reference) or by adding aqueous solutions of the peptides to finally obtain four different molar ratios: 50:1, 25:1, 10:1, and 5:1 DPPC/peptide (mol/mol). These ratios correspond to peptide concentrations of 1.1, 2.2, 5.5, and 11 mM, respectively. The DPPC concentration was 55 mM. The samples were incubated above the lipid’s phase transition temperature at 50 °C for 2 h, intermitted by vigorous vortexing every 15 min.
DPPC MLVs in the presence and absence of peptides were prepared as described above, incubated for 24 h at room temperature (gently rotating), and diluted with double-distilled water to 2.75 mM DPPC prior to measurements to fit the optimal concentration regime for DSC. Measurements were performed on a Microcal VP-DSC differential scanning calorimeter (Northampton, MA, USA). Scans were recorded at a constant scan rate of 0.5 °C/min from 10 to 80 °C. […] The sharpness of the transition was described by the full width at half-maximum (ΔT1/2), and calorimetric enthalpies (ΔH) were calculated by integrating the peak areas.

[4] = Determination of the critical aggregation concentration (CAC), DPH fluorescence assay; assay type: physicochemical; settings: excitation 359 nm, emission 428 nm, peptide in double-distilled water cleared with NaOH, aged 1 week, intersection of two fitted straight lines
Protocol: as §1
A 4 μL portion of DPH in methanol (10 μM) was added to 50 μL of peptide solution of varying concentrations. All fluorescence spectra were recorded under identical conditions on a CLARIOstar microplate reader (BMG LABTECH, Ortenberg, Germany) with an excitation wavelength of 359 nm. Fluorescence emission was recorded at 428 nm. Samples were background corrected and normalized to the highest intensity readout. DPH is almost nonfluorescent in aqueous solutions and in the presence of randomly oriented peptide monomers. As soon as oriented structures are formed, a sharp increase in fluorescence intensity is observed. The CAC of the peptide is defined as the intersection point of two straight lines, fitting the low intensity region and the region with linearly increasing intensity.[18]

Row | Substance | peptide fiber diameter in presence of LDL | hard sphere radius (Rs) [1] | diameter of supramolecular cylinders (TEM, both techniques) ([2]; above the CAC, Fig. S11) | fiber diameter, cryo-TEM ([2]; cryogenic conditions) | nanofiber diameter, negative-staining TEM ([2]; negative staining with 2% uranyl acetate, peptide aged 1 week) | interaction with DPPC MLVs [3] | ∼CAC (critical aggregation concentration) [4]
1 | Ac-AAAAAAYD-OH | 10 nm | 2.6 nm | – | – | – | – | –
2 | Ac-AAAAAAYK-NH2 [A6YK] | – | – | 4- 12 nm | 8–12 nm | 4–10 nm | no interaction | ~1 mM
